The structures appear in SMILES notation.

The subject of test [1] is murine leukemia L1210 cells. As to the kind of experiment: Growth inhibition test on cultured murine leukemia L1210 cells. Particulars: 48 hours, 37° C., Trypan blue viability. In kind it is cell-based. Here is the method:
1. Growth inhibition test on cultured murine leukemia L1210 cells
Murine leukemia L1210 cells(1×10^5) were treated with various concentrations of the compounds prepared in the above examples in RPMI 1640 medium supplemented with 10% fetal calf serum, and cultured in a 5% CO2 humidified incubator at 37° C. for 48 hours. Their viability, estimated by staining with 0.17% Trypan blue, was compared with that of control cells cultured in the identical medium without the compounds.

The test system of test [2] is murine leukemia L1210. As to the kind of experiment: Antitumor activity test on murine leukemia L1210 in vivo. More on the design: species or system male BDF1 mice. The note with it: days 1, 5, 9. Here is the method:
2. Antitumor activity test on murine leukemia L1210 in vivo
Murine leukemia L1210 cells were maintained in the peritoneal cavities of 6-week-old male DBA/2 mice by weekly transfer in accordance with the procedure described in cancer chemotherapy Reports, Part 3, 3(2), 7 (1972). Specifically, 1×10^6 leukemia cells were inoculated into the abdominal cavities of 6-week-old male BDF1 mice weighing 21±3 g on day 0. Each treatment group consisted of seven mice. The test compounds were dissolved or suspended in 0.5% carboxymethyl cellulose(CMC)solution (in water) and were administered intraperitoneally on days 1, 5, and 9 relative to the tumor inoculation.
Thirty mice of 6-week-old male BDF1 weighing 21±3 g were used as the control group, which were injected with 0.5% CMC solution only in the same manner as above.
Anti-tumor activities of the compounds were evaluated in terms of the T/C % values calculated from the mean survival time(T) of the compound-treated group over that(C) of the control group. [formula]

Take `CC(C)C1OC2C[NH2+][Pt-2]3([NH2+]CC2O1)[O]C(=O)C(C)(C)C(=O)[O]3` [Example 41, cis-dimethylmalonato[(4R,5R)-4,5-bis(aminomethyl)-2-isopropyl-1,3-dioxolane]platinum(II)]: in test [1], the “IC50 (concentration required for 50% inhibition of growth)” value amounted to 0.44 µg/mL. For the same molecule, the “T/C (%)” value in test [2] (25 mg/kg i.p.) worked out at 123%; in test [2] (50 mg/kg i.p.), 174%; in test [2] (100 mg/kg i.p.) it was 204%.
As to `O=C1CC(=O)[O][Pt-2]2([NH2+]CC3OCOC3C[NH2+]2)[O]1` [Example 33, cis-malonato[(4R,5R)-4,5-bis(aminomethyl)-1,3-dioxolane]platinum(II)], in test [1], the “IC50 (concentration required for 50% inhibition of growth)” value was 0.50 µg/mL. For the same molecule, the “T/C (%)” value stood at 146% in test [2] (12.5 mg/kg i.p.), 133% in test [2] (25 mg/kg i.p.) and 276% in test [2] (50 mg/kg i.p.).
The like results for `CC1OC(CN)C(CN)O1.CC1[O][Pt][O]C1=O` [Example 17, (L-lactato-O,O')[(4R,5R)-4,5-bis(aminomethyl)-2-methyl-1,3-dioxolane]platinum(II)] were, in that order, 0.44 µg/mL, 201%, 327% and 139%.
For `CC1(C)C(=O)[O][Pt-2]2([NH2+]CC3OC4(CCCC4)OC3C[NH2+]2)[O]C1=O` [Example 42, cis-dimethylmalonato[(4R,5R)-4,5-bis(aminomethyl)-1,3-dioxolane-2-spiro-1'-cyclopentane]platinum(II)], in test [1], the “IC50 (concentration required for 50% inhibition of growth)” value worked out at 0.54 µg/mL. Moreover, the figures for the “T/C (%)” value in test [2] (25 mg/kg i.p.), in test [2] (50 mg/kg i.p.) and in test [2] (100 mg/kg i.p.) were 172%, 160% and 150%, respectively.
Take `CC1O[C@H](CN)[C@@H](CN)O1.O=C1C[O][Pt][O]1` [Example 5, (glycolato-O,O')[(4R,5R)-4,5-bis(aminomethyl)-2-methyl-1,3-dioxolane]platinum(II)]: in test [1], the “IC50 (concentration required for 50% inhibition of growth)” value was 0.35 µg/mL. Besides, the “T/C (%)” value in test [2] (3.1 mg/kg i.p.) is 104%; in test [2] (6.2 mg/kg i.p.), 136%; in test [2] (12.5 mg/kg i.p.), 154%; in test [2] (50 mg/kg i.p.), “toxic”.
With `CC1(C)OC2C[NH2+][Pt-2]3([NH2+]CC2O1)[O]C(=O)CC(=O)[O]3` [Example 36, cis-malonato[(4R,5R)-4,5-bis(aminomethyl)-2,2-dimethyl-1,3-dioxolane]platinum(II)], in test [1], the “IC50 (concentration required for 50% inhibition of growth)” value turned out to be 0.76 µg/mL. Besides, the “T/C (%)” value in test [2] (12.5 mg/kg i.p.) was determined as 133%; in test [2] (25 mg/kg i.p.), 179%; in test [2] (50 mg/kg i.p.) it was 190%.
As for `CCC1OC2C[NH2+][Pt-2]3([NH2+]CC2O1)[O]C(=O)CC(=O)[O]3` [Example 35, cis-malonato[(4R,5R)-4,5-bis(aminomethyl)-2-ethyl-1,3-dioxolane]platinum(II)], the “IC50 (concentration required for 50% inhibition of growth)” value in test [1] is 0.44 µg/mL. Moreover, the “T/C (%)” value in test [2] (12.5 mg/kg i.p.) came to 144%; in test [2] (25 mg/kg i.p.) it was 204%; in test [2] (50 mg/kg i.p.) it was 245%.
The like results for `CC1OC2C[NH2+][Pt-2]3([NH2+]CC2O1)[O]C(=O)CC(=O)[O]3` [Example 34, cis-malonato[(4R,5R)-4,5-bis(aminomethyl)-2-methyl-1,3-dioxolane]platinum(II)] were, in that order, 0.60 µg/mL, 140%, 156% and 241%.
The matching figures for `CC1(C)OC(CN)C(CN)O1.CC1[O][Pt][O]C1=O` [Example 14, (L-lactato-O,O')[(4R,5R)-4,5-bis(aminomethyl)-2,2-dimethyl-1,3-dioxolane]platinum(II)]: 0.46 µg/mL, 213%, “toxic” and “toxic”.
The matching figures for `CC(C)C1O[C@H](C[NH-])[C@@H](C[NH-])O1.O=C([O-])CC(=O)[O-].[Pt+4]` (relative stereo) [Example 38, cis-malonato[(4R,5R)-4,5-bis(aminomethyl)-2-isopropyl-1,3-dioxolane]platinum(II)]: 0.43 µg/mL, 123%, 148% and 220%.
Consider `NC[C@H]1OCO[C@@H]1CN.O=C1C[O][Pt][O]1` [Example 1, (glycolato-O,O')[(4R,5R)-4,5-bis(aminomethyl)-1,3-dioxolane]platinum(II)], for which, in test [1], the “IC50 (concentration required for 50% inhibition of growth)” value is 0.36 µg/mL. The “T/C (%)” value is 95% in test [2] (3.1 mg/kg i.p.); 132% in test [2] (6.2 mg/kg i.p.); 137% in test [2] (12.5 mg/kg i.p.); 160% in test [2] (25 mg/kg i.p.); “toxic” in test [2] (50 mg/kg i.p.).
In the case of `O=C1CC(=O)[O][Pt-2]2([NH2+]CC3OC4(CCCC4)OC3C[NH2+]2)[O]1` [Example 39, cis-malonato[(4R,5R)-4,5-bis(aminomethyl)-1,3-dioxolane-2-spiro-1'-cyclopentane]platinum(II)], in test [1], the “IC50 (concentration required for 50% inhibition of growth)” value was determined as 0.31 µg/mL. The “T/C (%)” value in test [2] (12.5 mg/kg i.p.) was found to be 217%; in test [2] (25 mg/kg i.p.), 169%; in test [2] (50 mg/kg i.p.), 203%.
Turning to `CC1[O][Pt][O]C1=O.NCC1OCOC1CN` [Example 13, (L-lactato-O,O')[(4R,5R)-4,5-bis(aminomethyl)-1,3-dioxolane]platinum(II)], in test [1], the “IC50 (concentration required for 50% inhibition of growth)” value was determined as 0.55 µg/mL. In addition, the figures for the “T/C (%)” value in test [2] (12.5 mg/kg i.p.), in test [2] (25 mg/kg i.p.) and in test [2] (50 mg/kg i.p.) were 178%, 207% and 92%, respectively.
Take `CCC1OC2C[NH2+][Pt-2]3([NH2+]CC2O1)[O]C(=O)C(C)(C)C(=O)[O]3` [Example 40, cis-dimethylmalonato[(4R,5R)-4,5-bis(aminomethyl)-2-ethyl-1,3-dioxolane]platinum(II)]: the “IC50 (concentration required for 50% inhibition of growth)” value in test [1] is 0.52 µg/mL. Besides, the “T/C (%)” value is listed as 213% in test [2] (25 mg/kg i.p.), 165% in test [2] (50 mg/kg i.p.) and 248% in test [2] (100 mg/kg i.p.).

These data come from patent US5395947A, “Platinum(II) complex and processes for preparing the same” (Sunkyong Industries, Ltd., priority 1991, dated 1995).
